Measured values from US10798941B2, “Microbiocidal oxadiazole derivatives” (SYNGENTA PARTICIPATIONS AG, priority 2016, dated 2020).

Experiments:
[1] = system: Phakopsora pachyrhizi; assay: Phakopsora pachyrhizi / soybean / leaf disc preventative (Asian soybean rust); type: in vivo; settings: foliar, 288 h, 200 ppm in the applied formulation, soybean leaf disks, inoculated one day after application, assessed 12 to 14 days after application, vs untreated, read-out: disease control
Protocol: (§1) Leaf disks or leaf segments of various plant species are cut from plants grown in a greenhouse. The cut leaf disks or segments are placed in multiwell plates (24-well format) onto water agar. The leaf disks are sprayed with a test solution before (preventative) or after (curative) inoculation. Compounds to be tested are prepared as DMSO solutions (max. 10 mg/ml) which are diluted to the appropriate concentration with 0.025% Tween20 just before spraying. The inoculated leaf disks or segments are incubated under defined conditions (temperature, relative humidity, light, etc.) according to the respective test system. A single evaluation of disease level is carried out 3 to 14 days after inoculation, depending on the pathosystem. Percent disease control relative to the untreated check leaf disks or segments is then calculated.
Soybean leaf disks are placed on water agar in multiwell plates (24-well format) and sprayed with the formulated test compound diluted in water. One day after application leaf discs are inoculated by spraying a spore suspension on the lower leaf surface. After an incubation period in a climate cabinet of 24-36 hours in darkness at 20° C. and 75% rh leaf disc are kept at 20° C. with 12 h light/day and 75% rh. The activity of a compound is assessed as percent disease control compared to untreated when an appropriate level of disease damage appears in untreated check leaf disks (12 to 14 days after application).
(§2) The following compounds at 200 ppm in the applied formulation give at least 80% disease control in this test when compared to untreated control leaf disks under the same conditions, which show extensive disease development.

[2] = system: Glomerella Lagenarium (Colletotrichum Lagenarium); assay: Glomerella lagenarium (Colletotrichum lagenarium) liquid culture / cucumber / preventative (anthracnose); type: cell-based; settings: Colletotrichum orbiculare; 20 ppm in the applied formulation; liquid culture in PDB, 24° C., inhibition of growth measured photometrically 3 to 4 days after application, vs untreated; read-out: disease control
Procedure, shortened: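 Conidia from cryogenic storage were mixed into potato dextrose broth. This was added to compound diluted from DMSO into 0.025% Tween20, tested at 20 ppm. Plates were incubated in the dark at 24 °C and 96% relative humidity, and growth was read photometrically after 2–7 days as % activity versus untreated check.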

[3] = system: Puccinia recondita f. Sp. Tritici; assay: Puccinia recondita f. sp. tritici / wheat / leaf disc preventative (brown rust); type: in vivo; settings: foliar, 168 h, 200 ppm in the applied formulation, wheat leaf segments cv. Kanzler, preventative, inoculated 1 day after application, assessed 7 to 9 days after application, vs untreated, read-out: disease control
Protocol: as §1
Wheat leaf segments cv. Kanzler were placed on agar in multiwell plates (24-well format) and sprayed with the formulated test compound diluted in water. The leaf disks were inoculated with a spore suspension of the fungus 1 day after application. The inoculated leaf segments were incubated at 19° C. and 75% relative humidity (rh) under a light regime of 12 hours light/12 hours darkness in a climate cabinet and the activity of a compound was assessed as percent disease control compared to untreated when an appropriate level of disease damage appears in untreated check leaf segments (7 to 9 days after application).
as §2

[4] = system: Puccinia recondita f. Sp. Tritici; assay: Puccinia recondita f. sp. tritici / wheat / leaf disc curative (brown rust); type: in vivo; settings: foliar, 144 h, 200 ppm in the applied formulation, wheat leaf segments cv. Kanzler, applied 1 day after inoculation, assessed 6 to 8 days after application, vs untreated, read-out: disease control
Protocol: as §1
Wheat leaf segments cv. Kanzler are placed on agar in multiwell plates (24-well format). The leaf segments are then inoculated with a spore suspension of the fungus. Plates were stored in darkness at 19° C. and 75% relative humidity. The formulated test compound diluted in water was applied 1 day after inoculation. The leaf segments were incubated at 19° C. and 75% relative humidity under a light regime of 12 hours light/12 hours darkness in a climate cabinet and the activity of a compound was assessed as percent disease control compared to untreated when an appropriate level of disease damage appears in untreated check leaf segments (6 to 8 days after application).
as §2

Structure (SMILES)	pest or weed control at 200 ppm [1]	inhibition of growth at 20 ppm [2]	pest or weed control at 200 ppm [3]	pest or weed control at 200 ppm [4]
CC(=O)c1cccn1Cc1ccc(-c2noc(C(F)(F)F)n2)cc1 [Compound 1.59, 1-[1-[[4-[5-(trifluoromethyl)-1,2,4-oxadiazol-3-yl]phenyl]methyl]pyrrol-2-yl]ethanone]	≥ 80%	≥ 80%	–	–
COC(=O)c1ncn(Cc2ccc(-c3noc(C(F)(F)F)n3)cc2F)c1C(=O)OC [Compound 1.118, dimethyl 1-[[2-fluoro-4-[5-(trifluoromethyl)-1,2,4-oxadiazol-3-yl]phenyl]methyl]imidazole-4,5-dicarboxylate]	–	≥ 80%	≥ 80%	≥ 80%
N#Cc1ncn(Cc2ccc(-c3noc(C(F)(F)F)n3)cc2F)c1C#N [Compound 1.119, 1-[[2-fluoro-4-[5-(trifluoromethyl)-1,2,4-oxadiazol-3-yl]phenyl]methyl]imidazole-4,5-dicarbonitrile]	–	≥ 80%	≥ 80%	≥ 80%
Fc1cc(-c2noc(C(F)(F)F)n2)ccc1Cn1cnc(Br)c1 [Compound 1.120, 3-[4-[(4-bromoimidazol-1-yl)methyl]-3-fluoro-phenyl]-5-(trifluoromethyl)-1,2,4-oxadiazole]	–	≥ 80%	≥ 80%	≥ 80%
Fc1cc(-c2noc(C(F)(F)F)n2)ccc1Cn1cnc(Cl)c1Cl [Compound 1.121, 3-[4-[(4,5-dichloroimidazol-1-yl)methyl]-3-fluoro-phenyl]-5-(trifluoromethyl)-1,2,4-oxadiazole]	–	≥ 80%	≥ 80%	≥ 80%
Cc1cn(Cc2ccc(-c3noc(C(F)(F)F)n3)cc2F)cn1 [Compound 1.124, 3-[3-fluoro-4-[(4-methylimidazol-1-yl)methyl]phenyl]-5-(trifluoromethyl)-1,2,4-oxadiazole]	–	≥ 80%	≥ 80%	≥ 80%
Fc1cc(-c2noc(C(F)(F)F)n2)ccc1Cn1cc(Cl)cn1 [Compound 1.128, 3-[4-[(4-chloropyrazol-1-yl)methyl]-3-fluoro-phenyl]-5-(trifluoromethyl)-1,2,4-oxadiazole]	–	≥ 80%	≥ 80%	≥ 80%
Fc1cc(-c2noc(C(F)(F)F)n2)ccc1Cn1cc(I)cn1 [Compound 1.131, 3-[3-fluoro-4-[(4-iodopyrazol-1-yl)methyl]phenyl]-5-(trifluoromethyl)-1,2,4-oxadiazole]	–	≥ 80%	≥ 80%	≥ 80%
Fc1cc(-c2noc(C(F)(F)F)n2)ccc1Cn1cc(Br)cn1 [Compound 1.132, 3-[4-[(4-bromopyrazol-1-yl)methyl]-3-fluoro-phenyl]-5-(trifluoromethyl)-1,2,4-oxadiazole]	–	≥ 80%	≥ 80%	≥ 80%
COC(=O)c1ncn(Cc2ccc(-c3noc(C(F)(F)F)n3)cn2)c1C(=O)OC [Compound 1.133, dimethyl 1-[[5-[5-(trifluoromethyl)-1,2,4-oxadiazol-3-yl]-2-pyridyl]methyl]imidazole-4,5-dicarboxylate]	–	≥ 80%	≥ 80%	≥ 80%
N#Cc1ncn(Cc2ccc(-c3noc(C(F)(F)F)n3)cn2)c1C#N [Compound 1.135, 1-[[5-[5-(trifluoromethyl)-1,2,4-oxadiazol-3-yl]-2-pyridyl]methyl]imidazole-4,5-dicarbonitrile]	–	≥ 80%	≥ 80%	≥ 80%
FC(F)(F)c1nc(-c2ccc(Cn3cnc(Cl)c3Cl)nc2)no1 [Compound 1.137, 3-[6-[(4,5-dichloroimidazol-1-yl)methyl]-3-pyridyl]-5-(trifluoromethyl)-1,2,4-oxadiazole]	–	≥ 80%	≥ 80%	≥ 80%
FC(F)(F)c1nc(-c2ccc(Cn3cc(I)cn3)nc2)no1 [Compound 1.144, 3-[6-[(4-iodopyrazol-1-yl)methyl]-3-pyridyl]-5-(trifluoromethyl)-1,2,4-oxadiazole]	–	≥ 80%	≥ 80%	≥ 80%
FC(F)(F)c1nc(-c2ccc(Cn3nnnc3-c3ccccc3Br)cc2)no1 [Compound 1.152, 3-[4-[[5-(2-bromophenyl)tetrazol-1-yl]methyl]phenyl]-5-(trifluoromethyl)-1,2,4-oxadiazole]	≥ 80%	≥ 80%	–	–
FC(F)(F)c1nc(-c2ccc(Cn3nnc(-c4ccccc4Br)n3)cc2)no1 [Compound 1.153, 3-[4-[[5-(2-bromophenyl)tetrazol-2-yl]methyl]phenyl]-5-(trifluoromethyl)-1,2,4-oxadiazole]	≥ 80%	–	–	–
FC(F)(F)c1nc(-c2ccc(Cn3nnc4cc(Cl)c(Oc5ccc6c(c5)OCO6)cc43)cc2)no1 [Compound 1.177, 3-[4-[[6-(1,3-benzodioxol-5-yloxy)-5-chloro-benzotriazol-1-yl]methyl]phenyl]-5-(trifluoromethyl)-1,2,4-oxadiazole]	≥ 80%	–	–	–
CCOC(=O)c1ccc2c(c1)nnn2Cc1ccc(-c2noc(C(F)(F)F)n2)cc1 [Compound 1.184, ethyl 1-[[4-[5-(trifluoromethyl)-1,2,4-oxadiazol-3-yl]phenyl]methyl]benzotriazole-5-carboxylate]	≥ 80%	≥ 80%	–	–
CCOC(=O)c1ccc2nn(Cc3ccc(-c4noc(C(F)(F)F)n4)cc3)nc2c1 [Compound 1.185, ethyl 2-[[4-[5-(trifluoromethyl)-1,2,4-oxadiazol-3-yl]phenyl]methyl]benzotriazole-5-carboxylate]	≥ 80%	≥ 80%	–	–
CCOC(=O)c1cc(C2CC2)nn1Cc1ccc(-c2noc(C(F)(F)F)n2)cc1 [Compound 1.187, ethyl 5-cyclopropyl-2-[[4-[5-(trifluoromethyl)-1,2,4-oxadiazol-3-yl]phenyl]methyl]pyrazole-3-carboxylate]	≥ 80%	–	–	–
FC(F)(F)c1cc(Cl)c2nnn(Cc3ccc(-c4noc(C(F)(F)F)n4)cc3)c2c1 [Compound 1.195, 3-[4-[[4-chloro-6-(trifluoromethyl)benzotriazol-1-yl]methyl]phenyl]-5-(trifluoromethyl)-1,2,4-oxadiazole]	≥ 80%	–	–	–
Cc1ccc(-c2nnnn2Cc2ccc(-c3noc(C(F)(F)F)n3)cc2)cc1 [Compound 1.201, 3-[4-[[5-(p-tolyl)tetrazol-1-yl]methyl]phenyl]-5-(trifluoromethyl)-1,2,4-oxadiazole]	≥ 80%	–	–	–
FC(F)(F)c1nc(-c2ccc(Cn3nnnc3-c3ccc(Cl)cc3)cc2)no1 [Compound 1.230, 3-[4-[[5-(4-chlorophenyl)tetrazol-1-yl]methyl]phenyl]-5-(trifluoromethyl)-1,2,4-oxadiazole]	≥ 80%	–	–	–
COc1ccc(Cc2ccc(-c3noc(C(F)(F)F)n3)cc2)cn1 [Compound 1.254, 3-[4-[(6-methoxy-3-pyridyl)methyl]phenyl]-5-(trifluoromethyl)-1,2,4-oxadiazole]	–	≥ 80%	≥ 80%	≥ 80%
CON=C1CCN(Cc2ccc(-c3noc(C(F)(F)F)n3)cc2)C1 [Compound 1.292, N-methoxy-1-[[4-[5-(trifluoromethyl)-1,2,4-oxadiazol-3-yl]phenyl]methyl]pyrrolidin-3-imine]	–	≥ 80%	≥ 80%	≥ 80%
